Laboratory results taken from article PMC3420360 (Bioorganic & medicinal chemistry letters, 2010).

Legend:
[1] = target: T1, rat TRPV1 (Rattus norvegicus, UniProt O35433); experiment: functional 45Ca2+ uptake assay, agonism; assay type: cell-based; settings: for functional pattern of agonism/antagonism: 45Ca2+ uptake, rat TRPV1 in CHO cells, result in words; for fold less potent than RTX for functional activity: agonism EC50 versus RTX
[2] = target: T1, rat TRPV1; assay type: cell-based; settings: Ki(ant) versus 5'-iodo RTX under the same assay conditions

T1 sequence (O35433 whole entry): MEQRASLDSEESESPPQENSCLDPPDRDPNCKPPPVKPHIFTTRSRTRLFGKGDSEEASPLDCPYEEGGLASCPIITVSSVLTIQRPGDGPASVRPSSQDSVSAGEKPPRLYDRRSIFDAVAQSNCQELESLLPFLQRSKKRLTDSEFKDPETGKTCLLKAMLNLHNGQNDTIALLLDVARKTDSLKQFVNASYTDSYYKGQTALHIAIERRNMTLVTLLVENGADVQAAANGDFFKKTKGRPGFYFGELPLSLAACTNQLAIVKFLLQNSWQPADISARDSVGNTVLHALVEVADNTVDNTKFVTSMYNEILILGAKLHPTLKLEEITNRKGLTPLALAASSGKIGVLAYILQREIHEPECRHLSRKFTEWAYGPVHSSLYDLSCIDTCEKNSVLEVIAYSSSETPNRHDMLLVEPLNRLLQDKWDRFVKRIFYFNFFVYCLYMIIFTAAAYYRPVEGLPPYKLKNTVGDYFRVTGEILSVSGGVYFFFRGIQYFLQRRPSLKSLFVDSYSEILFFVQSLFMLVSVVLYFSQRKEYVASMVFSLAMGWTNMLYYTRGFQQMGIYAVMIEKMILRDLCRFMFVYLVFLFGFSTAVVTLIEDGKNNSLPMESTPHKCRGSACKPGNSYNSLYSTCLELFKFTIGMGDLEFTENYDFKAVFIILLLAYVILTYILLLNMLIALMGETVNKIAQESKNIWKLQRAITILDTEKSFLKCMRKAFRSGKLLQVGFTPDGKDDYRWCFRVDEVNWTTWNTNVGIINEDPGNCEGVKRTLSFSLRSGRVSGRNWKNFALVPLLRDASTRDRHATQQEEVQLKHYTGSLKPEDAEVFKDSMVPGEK

C=C(C)[C@@]12C[C@@H](C)C34OC(Cc5ccccc5)(OC1[C@@H]3C=C(COC(=O)Cc1cc(I)c(O)c(OC)c1)C[C@]1(O)C(=O)C(C)=C[C@@H]41)O2 (some centres unmarked) [compound 2, 5-iodo RTX, reference compound]
functional pattern of agonism/antagonism [1]: full antagonist

C=C(C)[C@@]12C[C@@H](C)C34OC(Cc5ccccc5)(OC1[C@@H]3C=C(COC(=O)Cc1cc(F)c(O)c(OC)c1)C[C@]1(O)C(=O)C(C)=C[C@@H]41)O2 (some centres unmarked) [compound 31]
functional pattern of agonism/antagonism [1]: full agonists
fold less potent than RTX for functional activity [1]: 9 fold

C=C(C)[C@@]12C[C@@H](C)C34OC(Cc5ccccc5)(OC1[C@@H]3C=C(COC(=O)Cc1cc(Cl)c(O)c(OC)c1)C[C@]1(O)C(=O)C(C)=C[C@@H]41)O2 (some centres unmarked) [compound 32]
functional pattern of agonism/antagonism [1]: full agonists
fold less potent than RTX for functional activity [1]: 21 fold

C=C(C)[C@@]12C[C@@H](C)C34OC(Cc5ccccc5)(OC1[C@@H]3C=C(COC(=O)Cc1cc(Br)c(O)c(OC)c1)C[C@]1(O)C(=O)C(C)=C[C@@H]41)O2 (some centres unmarked) [compound 33]
functional pattern of agonism/antagonism [1]: partial antagonist

C=C(C)[C@@]12C[C@@H](C)C34OC(Cc5ccccc5)(OC1[C@@H]3C=C(COC(=O)Cc1cc(Br)cc(Br)c1)C[C@]1(O)C(=O)C(C)=C[C@@H]41)O2 (some centres unmarked) [compound 35]
functional pattern of agonism/antagonism [1]: full agonist

C=C(C)[C@@]12C[C@@H](C)C34OC(Cc5ccccc5)(OC1[C@@H]3C=C(COC(=O)Cc1ccc(N)c(OC)c1)C[C@]1(O)C(=O)C(C)=C[C@@H]41)O2 (some centres unmarked) [compound 36, 4-amino RTX]
functional pattern of agonism/antagonism [1]: potent full agonism
fold less potent than RTX (Ki and EC50) ([1]; both binding Ki and agonism EC50 compared with RTX): 2–3 fold

C=C(C)[C@@]12C[C@@H](C)C34OC(Cc5ccccc5)(OC1[C@@H]3C=C(COC(=O)Cc1cc(F)c(N)c(OC)c1)C[C@]1(O)C(=O)C(C)=C[C@@H]41)O2 (some centres unmarked) [compound 37]
functional pattern of agonism/antagonism [1]: full agonist
fold less potent than the parent 36 (agonism) ([1]; agonism EC50 versus 4-amino RTX (36)): 2.5 fold

C=C(C)[C@@]12C[C@@H](C)C34OC(Cc5ccccc5)(OC1[C@@H]3C=C(COC(=O)Cc1cc(Cl)c(N)c(OC)c1)C[C@]1(O)C(=O)C(C)=C[C@@H]41)O2 (some centres unmarked) [compound 38]
functional pattern of agonism/antagonism [1]: partial antagonist

C=C(C)[C@@]12C[C@@H](C)C34OC(Cc5ccccc5)(OC1[C@@H]3C=C(COC(=O)Cc1cc(Br)c(N)c(OC)c1)C[C@]1(O)C(=O)C(C)=C[C@@H]41)O2 (some centres unmarked) [compound 39, 5-bromo-4-amino RTX]
functional pattern of agonism/antagonism [1]: full antagonist
fold more potent than I-RTX as antagonist [2]: 4 fold
